Assay results reported in ChEMBL document CHEMBL3228022, “Synthesis of 2,3,4,4a,5,9b-hexahydro-1H-pyrido[4,3-b]indole derivatives and their central nervous system activities” (1979).
Active and inactive are the calls of the source. The calls are words filed in the database; no cut-off is given here.

Legend:
[1] = system: Mus musculus; assay: Neuroleptic activity in STD-ddy mouse assessed as catalepsy at 100 mg/kg, po measured up to 30 secs; format: functional, organism-based; design: dose 100 mg/kg
[2] = system: Mus musculus; assay: Neuroleptic activity in STD-ddy mouse assessed as muscle relaxation at 100 mg/kg, po after 20 mins; format: functional, organism-based; design: dose 100 mg/kg
[3] = system: Mus musculus; assay: Neuroleptic activity in STD-ddy mouse assessed as inhibition of locomotion at 100 mg/kg, po measured for 3 mins; format: functional; details: 0.05 h
[4] = system: Rattus norvegicus; assay: Neuroleptic activity in Wistar HLA rat assessed as inhibition of methamphetamine-induced stereotyped behavior at 0.2 mg/kg, ip administered 20 mins before methamphetamine challenge measured every 30 mins for 3 hrs followed by every 1 hr for further 3 hrs; format: functional; design: scale not given: the % may be the effect or the level left; details: route intraperitoneal
[5] = system: Rattus norvegicus; assay: Neuroleptic activity in Wistar HLA rat assessed as inhibition of methamphetamine-induced stereotyped behavior at 0.1 mg/kg, ip administered 20 mins before methamphetamine challenge measured every 30 mins for 3 hrs followed by every 1 hr for further 3 hrs; format: functional; design: scale not given: the % may be the effect or the level left; details: route intraperitoneal
[6] = system: Rattus norvegicus; assay: Neuroleptic activity in Wistar HLA rat assessed as inhibition of methamphetamine-induced stereotyped behavior at 0.5 mg/kg, ip administered 20 mins before methamphetamine challenge measured every 30 mins for 3 hrs followed by every 1 hr for further 3 hrs; format: functional; design: scale not given: the % may be the effect or the level left; details: route intraperitoneal
[7] = system: Rattus norvegicus; assay: Neuroleptic activity in Wistar HLA rat assessed as inhibition of methamphetamine-induced stereotyped behavior at 1 mg/kg, ip administered 20 mins before methamphetamine challenge measured every 30 mins for 3 hrs followed by every 1 hr for further 3 hrs; format: functional; design: Activity: scale not given: the % may be the effect or the level left; details: route intraperitoneal
[8] = system: Rattus norvegicus; assay: Neuroleptic activity in Wistar HLA rat assessed as stimulation of methamphetamine-induced stereotyped behavior at 2 mg/kg, ip administered 20 mins before methamphetamine challenge measured every 30 mins for 3 hrs followed by every 1 hr for further 3 hrs; format: functional; details: route intraperitoneal
[9] = system: Mus musculus; assay: Neuroleptic activity in po dosed STD-ddy mouse assessed as inhibition of locomotion measured for 3 mins; format: functional; details: 0.05 h
[10] = system: Mus musculus; assay: Neuroleptic activity in po dosed STD-ddy mouse assessed as inhibition of active avoidance; format: functional
[11] = system: Rattus norvegicus; assay: Neuroleptic activity in Wistar HLA rat assessed as stimulation of methamphetamine-induced stereotyped behavior at 5 mg/kg, ip administered 20 mins before methamphetamine challenge measured every 30 mins for 3 hrs followed by every 1 hr for further 3 hrs; format: functional; details: route intraperitoneal
[12] = system: Mus musculus; assay: Neuroleptic activity in po dosed STD-ddy mouse assessed as inhibition of methamphetamine-induced stereotyped behavior administered 100 mins before methamphetamine challenge measured for 20 mins; format: functional
[13] = system: Rattus norvegicus; assay: Neuroleptic activity in Wistar HLA rat assessed as stimulation of methamphetamine-induced stereotyped behavior at 10 mg/kg, ip administered 20 mins before methamphetamine challenge measured every 30 mins for 3 hrs followed by every 1 hr for further 3 hrs; format: functional; details: route intraperitoneal
[14] = system: Mus musculus; assay: Neuroleptic activity in STD-ddy mouse assessed as inhibition of locomotion at 10 mg/kg, po measured for 3 mins; format: functional; details: 0.05 h
[15] = system: Rattus norvegicus; assay: Neuroleptic activity in sc dosed Wistar HLA rat assessed as inhibition of apomorphine-induced gnawing administered 1 hr before apomorphine challenge measured 5 to 20 mins; format: functional
[16] = system: Mus musculus; assay: Neuroleptic activity in po dosed STD-ddy mouse assessed as catalepsy measured up to 30 secs; format: functional
[17] = system: Rattus norvegicus; assay: Neuroleptic activity in Wistar HLA rat assessed as inhibition of methamphetamine-induced stereotyped behavior at 5 mg/kg, ip administered 20 mins before methamphetamine challenge measured every 30 mins for 3 hrs followed by every 1 hr for further 3 hrs; format: functional; design: Activity: scale not given: the % may be the effect or the level left; details: route intraperitoneal
[18] = system: Rattus norvegicus; assay: Neuroleptic activity in Wistar HLA rat assessed as inhibition of methamphetamine-induced stereotyped behavior at 2 mg/kg, ip administered 20 mins before methamphetamine challenge measured every 30 mins for 3 hrs followed by every 1 hr for further 3 hrs; format: functional; design: Activity: scale not given: the % may be the effect or the level left; details: route intraperitoneal
[19] = system: Rattus norvegicus; assay: Neuroleptic activity in Wistar HLA rat assessed as inhibition of methamphetamine-induced stereotyped behavior at 10 mg/kg, ip administered 20 mins before methamphetamine challenge measured every 30 mins for 3 hrs followed by every 1 hr for further 3 hrs; format: functional; design: Activity: scale not given: the % may be the effect or the level left; details: route intraperitoneal; for inhibition in vivo at 10 mg/kg: Rattus norvegicus, Wistar HLA, ip
[20] = Rattus norvegicus, Wistar HLA, ip

| SMILES | Activity [1] | Activity [2] | inhibition in vivo at 100 mg/kg [3] | other results |
| --- | --- | --- | --- | --- |
| Fc1ccc2c(c1)[C@H]1CN(Cc3ccccc3)CC[C@@H]1N2 (relative stereo) | inactive | inactive | 76.1% | – |
| O=C(CCCN1CCC(O)(c2ccc(Cl)cc2)CC1)c1ccc(F)cc1 [HALOPERIDOL] | – | – | – | Activity [4]: 25%; Activity [5]: 0%; Activity [6]: >75%; inhibition in vivo at 1 mg/kg [7, 20]: > 75% |
| Cc1ccc2c(c1)[C@H]1CN(Cc3ccccc3)CC[C@H]1N2 (relative stereo) | inactive | inactive | 35.3% | – |
| CC(=O)N1c2ccc(C)cc2[C@H]2CN(CCCC(=O)c3ccc(F)cc3)CC[C@H]21 (relative stereo) | inactive | inactive | 21.7% | – |
| CC(=O)CCN1CC[C@@H]2Nc3ccc(C)cc3[C@H]2C1 (relative stereo) | – | inactive | -15.5% | – |
| CC(=O)CCN1CC[C@H]2Nc3ccc(C)cc3[C@H]2C1 (relative stereo) | inactive | inactive | 38.8% | – |
| Cc1ccc2c(c1)[C@H]1CN(CCCC(=O)c3ccc(F)cc3)CC[C@H]1N2.Cl (relative stereo) | Active | Active | 97.8% | Activity [8]: 50%; ED50 [9]: 9.3 mg/kg; ED50 [10]: 10 mg/kg; Activity [11]: >75%; ED50 [12]: 23.8 mg/kg; Activity [7]: 0%; Activity [13]: 50%; inhibition in vivo at 10 mg/kg [14]: 75.9%; ED50 [15]: 16.5 mg/kg; ED50 [16]: 15.3 mg/kg |
| Cl.O=C(CCCN1CC[C@H]2Nc3ccc(F)cc3[C@H]2C1)c1ccc(F)cc1 (relative stereo) | – | – | 91.2% | inhibition in vivo at 5 mg/kg [17, 20]: 25%; Activity [18]: 0%; Activity [7]: 0%; inhibition in vivo at 10 mg/kg [14]: 47.2%; inhibition in vivo at 10 mg/kg [19]: 50% |
| Cc1ccc2c(c1)[C@H]1CN(CCO)CC[C@@H]1N2 (relative stereo) | inactive | inactive | -5.6% | – |
| Cc1ccc2[nH]c3c(c2c1)CN(CCCC(=O)c1ccc(F)cc1)CC3.Cl | – | – | – | Activity [17]: 0%; Activity [18]: 0%; Activity [7]: 0%; Activity [19]: 0% |
| Cc1ccc2c(c1)[C@H]1CN(CC(=O)c3ccccc3)CC[C@H]1N2 (relative stereo) | inactive | inactive | 29.8% | – |
| Cl.O=C(CCCN1CC[C@H]2Nc3ccccc3[C@H]2C1)c1ccc(F)cc1 (relative stereo) | – | – | 77.7% | Activity [17]: 0%; Activity [18]: 0%; Activity [7]: 0%; inhibition in vivo at 10 mg/kg [14]: -6%; inhibition in vivo at 10 mg/kg [19]: 25% |
| Cc1ccc2c(c1)[C@H]1CN(Cc3ccccc3)CC[C@@H]1N2 (relative stereo) | – | inactive | 17.9% | – |
| CCN1CC[C@H]2Nc3ccc(C)cc3[C@H]2C1 (mixture of isomers) | inactive | – | 54.7% | – |
